According to patent US9849130B2 (KamTek, Inc., priority 2014, dated 2017):
Values after ≈ are worked out from the molar mass of the structure shown. Read-outs that look alike come from different tables or passages of the source.

Legend:
[1] = test system: Staphylococcus aureus strains; assay: MIC by microdilution in Mueller-Hinton broth against Staphylococcus aureus strains; type: cell-based; conditions: Staphylococcus aureus
Bifidobacterium strains = assay: MIC by microdilution in BHI broth against Bifidobacterium strains; type: cell-based, Bifidobacterium spp.; conditions: BHI broth, read-out: MIC
C. perfringens MH310 = assay: microbe, parasite or virus in culture; type: cell-based; conditions: Clostridium perfringens, MH310, C. perfringens MH310
Lactobacillus strains = assay: MIC against Lactobacillus strains; type: cell-based, Lactobacillus spp.; conditions: for MIC: broth microdilution, BHI with 0.02% Tween 80, pH 6.0, read-out: MIC
[2] = test system: Lachnospiraceae and related bacterial strains; assay: MIC against Lachnospiraceae and related bacterial strains; type: cell-based, Lachnospiraceae spp.; conditions: for MIC: broth microdilution, brucella broth, read-out: MIC
Enterococci faecium = assay: MIC by microdilution in Mueller-Hinton broth against Enterococci faecium strains; type: cell-based, Enterococcus faecium; conditions: Enterococcus faecium, Mueller-Hinton broth, read-out: MIC
CD strains = assay: In vitro activity of CFM + additional antimicrobial agent against CD (MIC alone/combination, FIC, ΣFIC); type: cell-based, Clostridium difficile; conditions: CFM + MET; for MIC: Clostridioides difficile, read-out: MIC alone
C. difficile VPI10463 = conditions: Clostridioides difficile, −fecal extract, C. difficile VPI10463
Bacteroides Strains = assay: MIC by microdilution in Brucella broth against Bacteroides strains; type: cell-based, Bacteroides spp.
[3] = test system: Clostridium difficile (CD) strains; assay: microbe, parasite or virus in culture; type: cell-based; conditions: Clostridioides difficile; for MIC: BAA1805, CD strain BAA1805 (hyper-virulent strain BI/NAP1/027)
C. difficile = assay: Minimum bactericidal concentration (MBC) against C. difficile; type: cell-based, Clostridium difficile; conditions: Clostridioides difficile, CD strain VPI 10463; BHI; Table 19 formulations; read-out: MBC
Fusobacterium = assay: MIC by microdilution in Brucella broth against Fusobacterium; type: cell-based, Fusobacterium spp.; conditions: read-out: MIC
Enterococcus faecalis = assay: MIC by microdilution in Mueller-Hinton broth against Enterococcus faecalis strains; type: cell-based; conditions: Enterococcus faecalis
[4] = Test 14, CD strain BAA1805 (BI/NAP1/027)

`Cc1ncc([N+](=O)[O-])n1CCO` [MET, metronidazole] was tested, and the MIC ([1]; Staphylococcus aureus strain NR 10129, read-out: MIC) was > 32 µg/mL, the MIC ([1]; Staphylococcus aureus strain NR 10186, read-out: MIC) was > 32 µg/mL and the MIC ([1]; Staphylococcus aureus strain NR 10187, read-out: MIC) was > 32 µg/mL. For the same compound, the MIC ([1]; Staphylococcus aureus strain NR 10188, read-out: MIC) was > 32 µg/mL, the MIC ([1]; Staphylococcus aureus strain NR 10189, read-out: MIC) was > 32 µg/mL and the MIC ([1]; Staphylococcus aureus strain NR 10191, read-out: MIC) was > 32 µg/mL. For the same compound, the MIC ([1]; Staphylococcus aureus strain NR 10192, read-out: MIC) was > 32 µg/mL, the MIC ([1]; Staphylococcus aureus strain NR 10193, read-out: MIC) was > 32 µg/mL and the MIC ([1]; Staphylococcus aureus strain NR 10194, read-out: MIC) was > 32 µg/mL. The MIC ([1]; Staphylococcus aureus strain NR 10198, read-out: MIC) was > 32 µg/mL, the MIC (Bifidobacterium strains; Bifidobacterium adolescentis HM-633) was > 32 µg/mL and the MIC (Bifidobacterium strains; Bifidobacterium breve HM-411) was > 32 µg/mL. For the same compound, the MIC (Bifidobacterium strains; Bifidobacterium breve HM-412) was > 32 µg/mL, the MIC (Bifidobacterium strains; Bifidobacterium breve HM-856) was > 32 µg/mL and the MIC (Bifidobacterium strains; Bifidobacterium breve HM-1120) was 0.5 µg/mL (≈ 2.92 µM). It also gave an MIC (Bifidobacterium strains; Bifidobacterium longum HM-845) of 2 µg/mL (≈ 11.7 µM), an MIC (Bifidobacterium strains; Bifidobacterium longum HM-846) of 2 µg/mL (≈ 11.7 µM) and an MIC (Bifidobacterium strains; Bifidobacterium longum HM-847) of 1 µg/mL (≈ 5.84 µM). For the same compound, the MIC (Bifidobacterium strains; Bifidobacterium, Bifidobacterium sp. HM-30) was > 32 µg/mL, the MIC (Bifidobacterium strains; Bifidobacterium, Bifidobacterium sp. HM-868) was 16 µg/mL (≈ 93.5 µM) and the MIC (C. perfringens MH310; BB) was 2 µg/mL (≈ 11.7 µM). For the same compound, the MIC (C. perfringens MH310; BHI) was 1 µg/mL (≈ 5.84 µM), the MIC (Lactobacillus strains; Lactobacillus, pH 6, Lactobacillus jhonsonii HM-643) was > 32 µg/mL and the MIC (Lactobacillus strains; Lactobacillus, pH 6, Lactobacillus sp. HM-228) was > 32 µg/mL. For the same compound, the MIC (Lactobacillus strains; Lactobacillus, pH 6, Lactobacillus sp. HM-478) was > 32 µg/mL, the MIC (Lactobacillus strains; pH 6, Lactobacillus crispatus HM-637) was > 32 µg/mL and the MIC (Lactobacillus strains; pH 6, Lactobacillus gasseri HM-104) was > 32 µg/mL. The MIC (Lactobacillus strains; pH 6, Lactobacillus iners HM-126) was > 32 µg/mL, the MIC (Lactobacillus strains; pH 6, Lactobacillus jensenii HM-105) was > 32 µg/mL and the MIC (Lactobacillus strains; pH 6, Lactobacillus reuteri HM-102) was > 32 µg/mL. The MIC (Lactobacillus strains; pH 6, Lactobacillus rhamnosus HM-106) was > 32 µg/mL, the MIC (Lactobacillus strains; pH 6, Lactobacillus vaginalis HM-405) was > 32 µg/mL and the “in vitro activity against Lactobacillus spp. (in words)” value (Lactobacillus strains; ten strains tested) was “essentially inactive”. For the same compound, the MIC ([2]; Clostridiales bacterium, Clostridiales bacterium HM-84) was 0.25 µg/mL (≈ 1.46 µM), the MIC ([2]; Clostridiales bacterium, Clostridiales bacterium HM-182) was ≤ 0.031 µg/mL and the MIC ([2]; Eubacterium sp. HM-178) was 1 µg/mL (≈ 5.84 µM). For the same compound, the MIC ([2]; Lachnospiraceae sp. HM-7) was 0.25 µg/mL (≈ 1.46 µM), the MIC ([2]; Lachnospiraceae sp. HM-150) was 0.25 µg/mL (≈ 1.46 µM) and the MIC ([2]; Lachnospiraceae sp. HM-153) was 0.062 µg/mL (≈ 0.362 µM). For the same compound, the MIC ([2]; Lachnospiraceae sp. HM-157) was 0.25 µg/mL (≈ 1.46 µM), the MIC ([2]; Lachnospiraceae sp. HM-480) was 0.5 µg/mL (≈ 2.92 µM) and the MIC ([2]; Lachnospiraceae sp. HM-558) was 0.5 µg/mL (≈ 2.92 µM). The MIC ([2]; Lachnospiraceae sp. HM-768) was 0.5 µg/mL (≈ 2.92 µM), the MIC ([2]; Lachnospiraceae sp. HM-868) was 16 µg/mL (≈ 93.5 µM) and the MIC ([2]; Peptostreptococcaceae sp. HM-766) was 0.5 µg/mL (≈ 2.92 µM). The “susceptibility of Lachnospiraceae and related organisms (in words)” value ([2]; most of the members of this family) was “susceptible”, the MIC (Enterococci faecium; E. faecium NR 31903) was > 32 µg/mL and the MIC (Enterococci faecium; E. faecium NR 31909) was > 32 µg/mL. The MIC (Enterococci faecium; E. faecium NR 31912) was > 32 µg/mL, the MIC (Enterococci faecium; E. faecium NR 31915) was > 32 µg/mL and the MIC (Enterococci faecium; E. faecium NR 31916) was > 32 µg/mL. For the same compound, the MIC (CD strains; BAA1805, Test 14, CD strain BAA1805 (BI/NAP1/027)) was 16 µg/mL, the MIC (CD strains; BAA1805, Test 15, CD strain BAA1805 (BI/NAP1/027)) was 32 µg/mL and the MIC (CD strains; BAA1805, Test 17, CD strain BAA1805 (BI/NAP1/027)) was 32 µg/mL. The MIC (CD strains; Test 8, CD strain NR32885) was 2 µg/mL, the MIC (CD strains; Test 10, CD strain NR32885) was 1 µg/mL and the MIC (CD strains; Test 12, CD strain NR32885) was 1 µg/mL. For the same compound, the MIC (CD strains; Test 19, CD strain NR32888) was 2 µg/mL, the MIC (CD strains; Test 21, CD strain NR32888) was 2 µg/mL and the FIC (CD strains; Test 3, CD strain VPI 10463) was 0.5. For the same compound, the MIC combination (CD strains; Test 3, CD strain VPI 10463) was 0.062 µg/mL, the FIC (CD strains; Test 4, CD strain VPI 10463) was 0.5 and the MIC combination (CD strains; Test 4, CD strain VPI 10463) was 0.062 µg/mL. For the same compound, the MIC combination (CD strains; Test 8, CD strain NR32885) was 0.25 µg/mL, the FIC (CD strains; Test 10, CD strain NR32885) was 0.25 and the MIC combination (CD strains; Test 10, CD strain NR32885) was 0.25 µg/mL. It also gave an FIC (CD strains; Test 12, CD strain NR32885) of 0.25, an MIC combination (CD strains; Test 12, CD strain NR32885) of 0.25 µg/mL and an FIC (CD strains; [4]) of 0.015. For the same compound, the MIC combination (CD strains; [4]) was 0.25 µg/mL, the MIC combination (CD strains; Test 15, CD strain BAA1805 (BI/NAP1/027)) was 4 µg/mL and the MIC combination (CD strains; Test 17, CD strain BAA1805 (BI/NAP1/027)) was 4 µg/mL. The FIC (CD strains; Test 19, CD strain NR32888) was 0.062, the FIC (CD strains; Test 21, CD strain NR32888) was 0.25 and the MIC combination (CD strains; Test 21, CD strain NR32888) was 0.5 µg/mL. For the same compound, the MIC (C. difficile VPI10463; VPI10463, Expt. 1) was 0.062 µg/mL (≈ 0.362 µM), the MIC (C. difficile VPI10463; VPI10463, Expt. 2) was 0.062 µg/mL (≈ 0.362 µM) and the MIC (Bacteroides Strains; B. caccae HM728, read-out: MIC) was 0.25 µg/mL (≈ 1.46 µM). The MIC (Bacteroides Strains; B. eggerthii HM210, read-out: MIC) was 0.5 µg/mL (≈ 2.92 µM), the MIC (Bacteroides Strains; B. fragilis HM709, read-out: MIC) was 1 µg/mL (≈ 5.84 µM) and the MIC (Bacteroides Strains; B. fragilis HM710, read-out: MIC) was 0.5 µg/mL (≈ 2.92 µM). The MIC (Bacteroides Strains; B. fragilis HM714, read-out: MIC) was 1 µg/mL (≈ 5.84 µM), the MIC (Bacteroides Strains; B. ovatus HM222, read-out: MIC) was 0.5 µg/mL (≈ 2.92 µM) and the MIC (Bacteroides Strains; B. stercoris HM1036, read-out: MIC) was 0.25 µg/mL (≈ 1.46 µM). The MIC (Bacteroides Strains; Bacteroides, B. spp. HM18) was 4 µg/mL (≈ 23.4 µM), the MIC (Bacteroides Strains; Bacteroides, B. spp. HM19) was 1 µg/mL (≈ 5.84 µM) and the MIC (Bacteroides Strains; Bacteroides, B. spp. HM22) was 0.5 µg/mL (≈ 2.92 µM). For the same compound, the MIC (Bacteroides Strains; Bacteroides, B. spp. HM23, read-out: MIC) was 0.25 µg/mL (≈ 1.46 µM), the MIC (Bacteroides Strains; Bacteroides, B. spp. HM27) was 0.5 µg/mL (≈ 2.92 µM) and the MIC (Bacteroides Strains; Bacteroides, B. spp. HM28) was 2 µg/mL (≈ 11.7 µM). For the same compound, the MIC (Bacteroides Strains; Bacteroides, B. spp. HM58) was 2 µg/mL (≈ 11.7 µM), the MIC ([3]; BB) was 8 µg/mL (≈ 46.7 µM) and the MIC ([3]; BHI) was 1 µg/mL (≈ 5.84 µM). It also gave an MIC50 ([3]; n = 37, read-out: MIC50) of 1 µg/mL (≈ 5.84 µM), an MIC90 ([3]; n = 37, read-out: MIC90) of 4 µg/mL (≈ 23.4 µM) and an MBC (C. difficile) of 0.25 µg/mL (≈ 1.46 µM). The MIC (Fusobacterium; F. nucleatum HM-75, Brucella broth) was 0.062 µg/mL (≈ 0.362 µM), the MIC (Fusobacterium; F. nucleatum HM-993, Brucella broth) was ≤ 0.031 µg/mL and the MIC (Fusobacterium; F. nucleatum HM-996, Brucella broth) was 0.5 µg/mL (≈ 2.92 µM). For the same compound, the MIC (Fusobacterium; F. nucleatum HM-997, Brucella broth) was 0.25 µg/mL (≈ 1.46 µM), the MIC (Fusobacterium; Fusobacterium, Fusobacterium sp. HM 57, Brucella broth) was 0.5 µg/mL (≈ 2.92 µM) and the MIC (Fusobacterium; Fusobacterium, Fusobacterium spp. strains of Table 12 (all strains)) was 0.031 to 0.5 µg/mL (≈ 0.181 to 2.92 µM). For the same compound, the MIC (Enterococcus faecalis; E. faecalis NR 31884, read-out: MIC) was > 32 µg/mL, the MIC (Enterococcus faecalis; E. faecalis NR 31885, read-out: MIC) was > 32 µg/mL and the MIC (Enterococcus faecalis; E. faecalis NR 31886, read-out: MIC) was > 32 µg/mL. The MIC (Enterococcus faecalis; E. faecalis NR 31887, read-out: MIC) was > 32 µg/mL and the MIC (Enterococcus faecalis; E. faecalis NR 31888, read-out: MIC) was > 32 µg/mL.
